The text below walks through data of patent US20170066717A1, “NEW PHENYLAZETIDINECARBOXYLATE OR -CARBOXAMIDE COMPOUNDS” (INVENTIVA, priority 2014, published 2017).

The target of one experiment is T1, NURR-1/RXRγ (Homo sapiens, UniProt P48443).
T1 construct: expressed in transfected cells; host or cells: Cos-7 cells
Briefly: Transactivation test, NURR-1-Gal4/RXRγ, luciferase reporter in Cos-7 cells. In kind it is cell-based. The conditions noted are these: for Emax: COS-7, induction level relative to reference XCT0135908 at 2×10^−5 M (=100%), read-out: hNurr1_RXRgFL Emax (%); for EC50: Cos-7 cells, NURR-1-Gal4/RXRγ, luciferase reporter, read-out: hNurr1_RXRgFL EC50. In general terms: Reporter assays use an easily measured gene product as a stand-in for the process of interest.

For a further experiment, the target named is T2, NURR-1/RXRα (Homo sapiens, UniProt P19793).
T2 construct: expressed in transfected cells; host or cells: Cos-7 cells
Briefly: Transactivation test, NURR-1-Gal4/RXRα, luciferase reporter in Cos-7 cells. In kind it is cell-based. The note with it: for Emax: COS-7, induction level relative to reference XCT0135908 at 2×10^−5 M (=100%), read-out: hNurr1_RXRaFL Emax (%); for EC50: Cos-7 cells, NURR-1-Gal4/RXRα, luciferase reporter, read-out: hNurr1_RXRaFL EC50.

Setting [1] is: induction level relative to reference XCT0135908 at 2×10^−5 M (=100%).

T2 sequence (P19793 whole entry): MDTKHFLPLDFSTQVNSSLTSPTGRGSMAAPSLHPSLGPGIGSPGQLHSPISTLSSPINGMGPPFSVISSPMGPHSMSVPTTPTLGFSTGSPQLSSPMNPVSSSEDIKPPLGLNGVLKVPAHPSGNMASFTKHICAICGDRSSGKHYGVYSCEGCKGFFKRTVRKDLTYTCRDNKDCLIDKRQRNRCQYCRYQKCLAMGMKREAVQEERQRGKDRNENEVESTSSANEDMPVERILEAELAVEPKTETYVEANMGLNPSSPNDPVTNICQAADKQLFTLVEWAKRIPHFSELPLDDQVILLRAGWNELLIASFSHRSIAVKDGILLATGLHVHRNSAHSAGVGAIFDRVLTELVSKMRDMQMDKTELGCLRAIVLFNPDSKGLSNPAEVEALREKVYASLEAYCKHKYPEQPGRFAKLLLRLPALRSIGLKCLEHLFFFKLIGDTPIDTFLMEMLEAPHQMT
T2 sequence (P43354 whole entry partner): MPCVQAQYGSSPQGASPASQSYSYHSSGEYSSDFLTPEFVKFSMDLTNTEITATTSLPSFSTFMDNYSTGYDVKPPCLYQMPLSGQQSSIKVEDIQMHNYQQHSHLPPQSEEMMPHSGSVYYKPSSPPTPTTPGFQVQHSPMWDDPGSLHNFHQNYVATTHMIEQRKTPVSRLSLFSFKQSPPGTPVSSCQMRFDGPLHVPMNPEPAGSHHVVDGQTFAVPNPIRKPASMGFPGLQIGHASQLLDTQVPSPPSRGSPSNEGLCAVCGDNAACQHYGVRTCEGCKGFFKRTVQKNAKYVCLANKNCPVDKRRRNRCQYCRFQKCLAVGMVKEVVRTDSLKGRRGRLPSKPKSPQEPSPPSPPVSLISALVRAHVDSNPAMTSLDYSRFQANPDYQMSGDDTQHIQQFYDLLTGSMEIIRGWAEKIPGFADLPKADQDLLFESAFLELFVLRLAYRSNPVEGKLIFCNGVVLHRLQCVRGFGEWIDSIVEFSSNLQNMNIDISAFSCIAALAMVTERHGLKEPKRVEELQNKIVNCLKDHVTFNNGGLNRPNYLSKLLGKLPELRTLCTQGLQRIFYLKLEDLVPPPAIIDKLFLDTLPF
T2 sequence (P04386 1-147 partner limits assumed): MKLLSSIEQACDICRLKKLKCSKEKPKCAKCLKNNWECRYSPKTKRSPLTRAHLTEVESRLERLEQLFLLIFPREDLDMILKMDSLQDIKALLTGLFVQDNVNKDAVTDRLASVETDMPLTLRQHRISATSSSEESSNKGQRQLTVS
T1 sequence (P48443 whole entry): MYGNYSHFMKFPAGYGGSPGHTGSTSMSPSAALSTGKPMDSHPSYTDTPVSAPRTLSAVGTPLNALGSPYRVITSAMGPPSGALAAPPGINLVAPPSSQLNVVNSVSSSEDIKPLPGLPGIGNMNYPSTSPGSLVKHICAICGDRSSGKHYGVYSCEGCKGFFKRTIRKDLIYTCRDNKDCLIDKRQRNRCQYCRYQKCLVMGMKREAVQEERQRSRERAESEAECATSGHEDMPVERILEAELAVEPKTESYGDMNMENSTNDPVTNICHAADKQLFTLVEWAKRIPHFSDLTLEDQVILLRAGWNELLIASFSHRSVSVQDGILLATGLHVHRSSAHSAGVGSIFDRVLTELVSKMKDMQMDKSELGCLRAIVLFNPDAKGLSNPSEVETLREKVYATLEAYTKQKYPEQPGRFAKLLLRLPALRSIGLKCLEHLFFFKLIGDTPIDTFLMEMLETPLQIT
T1 sequence (P43354 whole entry partner): as the sequence (P43354 whole entry partner) above
T1 sequence (P04386 1-147 partner limits assumed): as the sequence (P04386 1-147 partner limits assumed) above

`Cc1cn(-c2cccc(N3CC(C(=O)NC4CCC4)C3)c2)c2ccc(C(F)(F)F)cc12` [Example 179]: at NURR-1/RXRγ, the Emax was 144% and the EC50 was 12 nM. On NURR-1/RXRα, the Emax turned out to be 119% and the EC50 came to 8 nM.

As for `Cc1cn(-c2cccc(N3CC(C(=O)NC4CCOCC4)C3)c2)c2ccc(C(F)(F)F)cc12` [Example 180, 1-[3-[3-methyl-5-(trifluorometnyl)indol-1-yl]phenyl]-N-tetrahydropyran-4-yl-azetidine-3-carboxamide], at NURR-1/RXRγ, the Emax was 110% and the EC50 is 86 nM. Further, on NURR-1/RXRα, the Emax is 103% and the EC50 was 54 nM.

Consider `Cc1cn(-c2cccc(N3CC(C(=O)NCCN4CCN(C)CC4)C3)c2)c2ccc(C(F)(F)F)cc12` [Example 181, N-[2-(4-methylipiperazin-1-yl)ethyl]-1-[3-[3-methyl-5-(trifluoromethyl)indol-1-yl]phenyl]azetidine-3-carboxamide], for which, at NURR-1/RXRγ, the maximal effect (Emax) came to 96% and the EC50 amounted to 293 nM. On NURR-1/RXRα, the Emax turned out to be 103% and the EC50 came to 168 nM.

Take `CC(=O)NCCCNC(=O)C1CN(c2cccc(-n3cc(C)c4cc(C(F)(F)F)ccc43)c2)C1` [Example 182, N-(3-acetamidopropyl)-1-[3-[3-methyl-5-(trifluoromethyl)indol-1-yl]phenyl]azetidine-3-carboxylate]: the Emax at NURR-1/RXRγ worked out at 111%; at NURR-1/RXRα, 98%. Moreover, the EC50 is 14 nM on NURR-1/RXRγ and 7 nM at NURR-1/RXRα.

Regarding `Cc1cn(-c2cccc(N3CC(C(=O)NC4CCC(F)(F)CC4)C3)c2)c2ccc(C(F)(F)F)cc12` [Example 183, N-(4,4-difluorocyclophexyl)-1-[3-[3-5-(trifluoromethyl)indol-1-yl]phenyl]-azetidine-3-carboxamide], at NURR-1/RXRγ, the Emax is 127% and the EC50 was 316 nM. On NURR-1/RXRα, the Emax came out at 108% and the EC50 amounted to 92 nM.

Regarding `CCCc1ccc(C(C)C)cc1-c1cccc(N2CC(C(=O)O)C2)c1` [Example 195, piperazin-1-ium-1-[3-(5-isopropyl-2-propylphenyl)phenyl]azetidine-3-carboxylate], the EC50 at NURR-1/RXRγ is 116 nM. In addition, at NURR-1/RXRα, the Emax was determined as 105% and the EC50 is 7 nM.

Consider `CN1CC2(CCC2)Oc2cc(C(F)(F)F)cc(-c3cccc(N4CC(C(=O)O)C4)c3)c21` [Example 203, sodium 1-[3-[4-methul-7-(trifluoromethyl)spiro[3H-1,4-benzoxazine-2,1′-cyclobutane]-5-yl]phenyl]azetidine-3-carboxylate], for which, on NURR-1/RXRγ, the maximal response (Emax) was 63% and the EC50 was found to be 4 nM. Moreover, at NURR-1/RXRα, the Emax amounted to 80% and the EC50 stood at 0.69 nM.

For the molecule `CCc1cc2c(c(-c3cccc(N4CC(C(=O)O)C4)c3)c1)NCC(C)(C)O2` [Example 207, tert-butylammonium 1-[3-(7-ethyl-2,2-dimethyl-3,4-dihydro-1,4-benzoxazin-5-yl)phenyl]azetidine-3-carboxylate], on NURR-1/RXRγ, the Emax was 103% and the EC50 worked out at 16 nM. Moreover, on NURR-1/RXRα, the Emax is 112% and the EC50 came to 15 nM.

As for `CC1(C)CN(c2cccc(N3CC(C(=O)O)C3)c2)c2ccc(Br)cc2O1` [Example 222, sodium 1-[3-(7-bromo-2,2-dimethyl-3H-1,4-benzoxazin-4-yl)phenyl]azetidine-3-carbxoylate], the Emax is 94% at NURR-1/RXRγ and 115% at NURR-1/RXRα. The EC50 came to 27 nM on NURR-1/RXRγ and 19 nM on NURR-1/RXRα.

As for `CC(C)Cc1ccc2c(c1)OC(C)(C)CN2c1cccc(N2CC(C(=O)O)C2)c1` [Example 230, 1-[3-(7-isobutyl-2,2-dimethyl-3H-1,4-benzoxazin-4yl)phenyl]azetidine-3-carboxylic acid], on NURR-1/RXRγ, the Emax was determined as 85% and the EC50 turned out to be 1000 nM. For the same molecule, at NURR-1/RXRα, the Emax is 62% and the EC50 turned out to be 535 nM.

For `CC(C)Cc1ccc2c(c1)OC(C)(C)CN2c1cccc(N2CC(C(=O)O)C2)c1` [Example 231, tert-butylammonium 1-[3-(7-isobutyl-2,2-dimethyl-3H-1,4-benzoxazin-4yl)phenyl]azetidine-3-carboxylate], the EC50 at NURR-1/RXRγ was found to be 792 nM; on NURR-1/RXRα, 318 nM. Further, the “hNurr1_RXRgFL Emax (%)” value on NURR-1/RXRγ (setting [1]) is 66%. In addition, at NURR-1/RXRα (setting [1]), the “hNurr1_RXRaFL Emax (%)” value is reported as 58%.

With `O=C(O)C1CN(c2cccc(N3CCOc4cc(C(F)(F)F)ncc43)c2)C1` [Example 240, sodium 1-[3-[7-(trifluoromethyl)-2,3-dihydropurido[4,3][1,4]oxazin-4-yl]phenyl]azetidine-3-carboxylate], on NURR-1/RXRγ, the maximum response (Emax) stood at 83% and the EC50 came to 3260 nM. Besides, at NURR-1/RXRα, the Emax is 98% and the EC50 turned out to be 1830 nM.

For `O=C(O)C1CN(c2cccc(N3CC4(CCCC4)c4cc(Cl)ccc43)c2)C1` [Example 257, tert-butylammonium 1-[3-(5′-chlorospiro[cyclopentane-1,3′-indolin]-1′-yl)phenyl]azetidine-3-carboxyate], at NURR-1/RXRγ, the Emax stood at 89% and the EC50 came to 59 nM. Also, at NURR-1/RXRα, the Emax came to 103% and the concentration giving a half-maximal response (EC50) turned out to be 23 nM.

Consider `CCC1(CC)C=C(c2cccc(N3CC(C(=O)O)C3)c2)c2ccc(C(F)(F)F)cc2O1` [Example 265], for which, at NURR-1/RXRγ, the Emax was found to be 79% and the EC50 came to 8 nM. Moreover, at NURR-1/RXRα, the Emax turned out to be 79% and the EC50 is 3 nM.

As for `CN(C)CCOC(=O)C1CN(c2cccc(N3CC(C)(C)Oc4cc(C(F)(F)F)ccc43)c2)C1` [Example 272, 2-dimethylaminoethyl 1-[3-[2,2-dimethyl-7-(trifluomethyl)-3H-1,4-benzoxazin-4-yl]phenyl]azetidine-3-carboxylate], on NURR-1/RXRγ, the Emax is 124% and the EC50 amounted to 4 nM. Moreover, on NURR-1/RXRα, the Emax amounted to 117% and the EC50 is 4 nM.

Turning to `CC1(C)CN(c2cccc(N3CC(C(=O)NCCO)C3)c2)c2ccc(C(F)(F)F)cc2O1` [Example 275, 1-[3-[2,2-dimethyl-7-(trifluoromethyl)-3H-1,4-benzoxazin-4-yl]phenyl]-N-(2-hydroxyethyl)azetidine-3-carboxamide], at NURR-1/RXRγ, the Emax was 98% and the EC50 amounted to 44 nM. Moreover, on NURR-1/RXRα, the Emax was 109% and the EC50 was determined as 8 nM.

`CC1(C)CN(c2cccc(N3CC(C(=O)NC(CO)CO)C3)c2)c2ccc(C(F)(F)F)cc2O1` [Example 276, 1-[3-[2,2-dimethyl-7-(trifluoromethyl)-3H-1,4-benzoxazin-4-yl]phenyl]N-[2-hydroxy-1-(hydroxymethyl)ethyl]azetidine-3-carboxamide]: on NURR-1/RXRγ, the Emax is 92% and the EC50 is 150 nM. Besides, on NURR-1/RXRα, the maximum response (Emax) is 105% and the EC50 amounted to 15 nM.

In the case of `CC1(C)CN(c2cccc(N3CC(C(=O)NCC(O)CO)C3)c2)c2ccc(C(F)(F)F)cc2O1` (centres unmarked) [Example 277, N-(2,3-dihydroxypropyl)-1-[3-[2,2-dimethyl-7-(trifluoromethyl)-3H-1,4-benzoxazin-4-yl]phenyl]azetidine-3-carboxamide], the Emax was 97% at NURR-1/RXRγ and 103% on NURR-1/RXRα. For the same molecule, the EC50 on NURR-1/RXRγ worked out at 52 nM; at NURR-1/RXRα, 19 nM.

In general, Emax refers to the size of the effect at its maximum, as opposed to the concentration needed. For orientation: EC50 means the concentration needed to bring the measured effect to its halfway point.
